Reference: US20210400977A1, “META-DIAMIDE COMPOUNDS FOR CONTROLLING INVERTEBRATE PESTS” (FMC Corporation, priority 2018, published 2021)

Experiments:
[1] = system: corn planthopper (Peregrinus maidis (Ashmead)); experiment: Test C: control of corn planthopper through contact and/or systemic means; type: in vivo; details: 144 h, sprayed at 250 ppm, assessed after 6 days
Protocol: (§1) Test compounds were formulated using a solution containing 10% acetone, 90% water and 300 ppm Activator 90® non-ionic surfactant (Loveland Products, Loveland, Colo., USA). The formulated compounds were applied in 1 mL of liquid through an atomizer nozzle positioned 1.27 cm (0.5 inches) above the top of each test unit. Test compounds were sprayed at the rates indicated, and each test was replicated three times.
For evaluating control of corn planthopper (Peregrinus maidis (Ashmead)) through contact and/or systemic means, the test unit consisted of a small open container with a 3-4-day-old corn (maize) plant inside. White sand was added to the top of the soil prior to application of the test compound.
Test compounds were formulated and sprayed at 250 and/or 50 ppm. After spraying of the formulated test compound, the test units were allowed to dry for 1 h before they were post-infested with ˜15-20 nymphs (18-to-21-day-old). A black, screened cap was placed on the top of each test unit, and the test units were held for 6 days in a growth chamber at 22-24° C. and 50-70% relative humidity. Each test unit was then visually assessed for insect mortality.

[2] = system: sweetpotato whitefly (Bemisia tabaci (Gennadius)); experiment: Test G: control of sweetpotato whitefly through contact and/or systemic means; type: in vivo; details: 312 h, assessed after 13 days
Protocol: as §1
For evaluating control of the sweetpotato whitefly (Bemisia tabaci (Gennadius)) through contact and/or systemic means, the test unit consisted of a small open container with a 12-14-day-old cotton plant or 7-9-day-old soybean plant inside. Prior to the spray application, both cotyledons were removed from the plant, leaving one true leaf for the assay. Adult whiteflies were allowed to lay eggs on the plant and then were removed from the test unit. Cotton or soybean plants infested with at least 15 eggs were submitted to the test for spraying.
Test compounds were formulated and sprayed at 250 and/or 50 ppm. After spraying, the test units were allowed to dry for 1 hour. The cylinders were then removed, and the units were taken to a growth chamber and held for 13 days at 28° C. and 50-70% relative humidity. Each test unit was then visually assessed for insect mortality.

Row | melting point [°C] | Structure (SMILES) | mortality at 250 ppm [1] [%] | mortality at 50 ppm ([2]; sprayed at 50 ppm) [%] | mortality at 250 ppm ([2]; sprayed at 250 ppm) [%]
1 | 187 to 191 | CC(C)C(=O)NCc1ccc(Cl)c(NC(=O)C2C(c3cc(Cl)cc(Cl)c3)C2(Cl)Cl)c1 (stereo not shown) [Compound 136] |  |  | 
2 |  | CCC(=O)NCc1cc(NC(=O)C2C(c3cc(Cl)cc(Cl)c3)C2(Cl)Cl)ccc1F (stereo not shown) [Compound 153] | ≥ 80 | ≥ 70 | ≥ 70
3 | 170 to 173 | CC(=O)NCc1nc(NC(=O)C2C(c3ccc(F)c(Cl)c3)C2(Cl)Cl)ccc1Br (stereo not shown) [Compound 247] |  |  | 
4 | 152 to 155 | O=C(NCc1nc(NC(=O)C2C(c3ccc(F)c(Cl)c3)C2(Cl)Cl)ccc1Br)C1CC1 (stereo not shown) [Compound 254] |  |  | 
5 | 184 to 187 | O=C(CC(F)(F)F)NCc1nc(NC(=O)C2C(c3ccc(F)c(Cl)c3)C2(Cl)Cl)ccc1Br (stereo not shown) [Compound 256] |  |  | 
